How the values were obtained:
H358 = assay: Anti-proliferation 2D CTG test (H358); assay type: cell-based; conditions: H358 cells, 1500 cells/well, 5 days incubation with compound, CTG readout
How it was run: (§1)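 H358 (1500 cells/well) and MIA PaCa-2 (500 cells/well) seeded overnight, then treated 5 days at 37 °C with 10-point 1:3 dilutions, top final […], 0.5% DMSO. Viability by CellTiter-Glo luminescence; IC50 from four-parameter fit normalized to plate controls.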

MIA PaCa-2 = assay: Anti-proliferation 2D CTG test (MIA PaCa-2); assay type: cell-based; conditions: MIAPACA-2 cells, 500 cells/well, 5 days incubation with compound, CTG readout
How it was run: as §1

[1] = Homo sapiens, MIA PaCa-2, 120 h

| Structure (SMILES) | IC50 (H358) [nM] | IC50 (MIA PaCa-2) [nM] | IC50 (H358; Homo sapiens, NCI-H358, 120 h) [nM] | IC50 (MIA PaCa-2; [1]) [nM] |
| --- | --- | --- | --- | --- |
| C=CC(=O)N1CCN(c2nc(=O)n3c4nc(c(F)cc24)-c2c(F)cccc2OCC(OCC2CC2)C(O)c2ccnc(C(C)C)c2-3)[C@@H](C)C1 (stereo partly drawn) [Example 49, (R)-2^4-((S)-4-acryloyl-2-methylpiperazin-1-yl)-6-(cyclopropylmethoxy)-2^6,3^6-difluoro-7-hydroxy-1^2-isopropyl-2^1,2^2-dihydro-4-oxa-2(1,7)-pyrido[2,3-d]pyrimidina-1(3,4)-pyridina-3(1,2)-benzocycloheptane-2^2-one] | 7 | 6 |  |  |
| C=CC(=O)N1CCN(c2nc(=O)n3c4nc(c(F)cc24)-c2c(F)cccc2OCC(OCC(F)F)C(O)c2ccnc(C(C)C)c2-3)[C@@H](C)C1 (stereo partly drawn) [Example 53, (R)-2^4-((S)-4-acryloyl-2-methylpiperazin-1-yl)-6-(2,2-difluoroethoxy)-2^6,3^6-difluoro-7-hydroxy-1^2-isopropyl-2^1,2^2-dihydro-4-oxa-2(1,7)-pyrido[2,3-d]pyrimidina-1(3,4)-pyridina-3(1,2)-benzocycloheptane-2^2-one] | 17 | 16 |  |  |
| C=CC(=O)N1CCN(c2nc(=O)n3c4nc(c(F)cc24)-c2c(F)cccc2OCC(OCC(F)F)C(O)c2ccnc(C(C)C)c2-3)[C@@H](C)C1 (stereo partly drawn) [Example 54, (S)-2^4-((S)-4-acryloyl-2-methylpiperazin-1-yl)-6-(2,2-difluoroethoxy)-2^6,3^6-difluoro-7-hydroxy-1^2-isopropyl-2^1,2^2-dihydro-4-oxa-2(1,7)-pyrido[2,3-d]pyrimidina-1(3,4)-pyridina-3(1,2)-benzocycloheptane-2^2-one] | 830 | 708 |  |  |
| C=CC(=O)N1C[C@H](C)N(c2nc(=O)n3c4nc(c(F)cc24)-c2c(F)cccc2OCC(O)C(OCC)c2ccnc(C(C)C)c2-3)C[C@H]1C (stereo partly drawn) [Example 57, (R)-2^4-((2S,5R)-4-acryloyl-2,5-dimethylpiperazin-1-yl)-7-ethoxy-2^6,3^6-difluoro-6-hydroxy-1^2-isopropyl-2^1,2^2-dihydro-4-oxa-2(1,7)-pyrido[2,3-d]pyrimidina-1(3,4)-pyridina-3(1,2)-benzocycloheptane-2^2-one] | 35 | 18 |  |  |
| C=CC(=O)N1CCN(c2nc(=O)n3c4nc(c(F)cc24)-c2c(F)cccc2OCC(OC)C(OC)c2ccnc(C(C)C)c2-3)[C@@H](C)C1 (stereo partly drawn) [Example 59, 2^4-((S)-4-acryloyl-2-methylpiperazin-1-yl)-2^6,3^6-difluoro-1^2-isopropyl-6,7-dimethoxy-2^1,2^2-dihydro-4-oxa-2(1,7)-pyrido[2,3-d]pyrimidina-1(3,4)-pyridina-3(1,2)-benzocycloheptane-2^2-one] |  |  | 23 | 9 |
| C=CC(=O)N1CCN(c2nc(=O)n3c4nc(c(F)cc24)-c2c(F)cccc2OCC(OCC)C(OCC)c2ccnc(C(C)C)c2-3)[C@@H](C)C1 (stereo partly drawn) [Example 60, 2^4-((S)-4-acryloyl-2-methylpiperazin-1-yl)-6,7-diethoxy-2^6,3^6-difluoro-1^2-isopropyl-2^1,2^2-dihydro-4-oxa-2(1,7)-pyrido[2,3-d]pyrimidina-1(3,4)-pyridina-3(1,2)-benzocycloheptane-2^2-one] |  |  | 45 | 38 |
| C=CC(=O)N1CCN(c2nc(=O)n3c4nc(c(F)cc24)-c2c(F)cccc2OCC2OC(=O)OC2c2ccnc(C(C)C)c2-3)[C@@H](C)C1 (stereo partly drawn) [Example 62, 11-((S)-4-acryloyl-2-methylpiperazin-1-yl)-15,21-difluoro-7-isopropyl-3a,20a-dihydro-9H,20H-12,14-(epiethane[1,2]diylidene)benzo[b][1,3]dioxazolo[4,5-j]pyrido[3,4-h]pyrimido[6,1-f][1]oxa[5,7]diazacyclodidecyne-2,9-dione] |  |  | 20 | 16 |
| C=CC(=O)N1CCN(c2nc(=O)n3c4nc(c(F)cc24)-c2c(F)cccc2OCC2OC(C)(C)OC2c2ccnc(C(C)C)c2-3)[C@@H](C)C1 (stereo partly drawn) [Example 63, 11-((S)-4-acryloyl-2-methylpiperazin-1-yl)-15,21-difluoro-7-isopropyl-2,2-dimethyl-3a,20a-dihydro-9H,20H-12,14-(eiethane[1,2]diylidene)benzo[b][1,3]dioxazolo[4,5-j]pyrido[3,4-h]pyrimido[6,1-f][1]oxa[5,7]diazacyclododecin-9-one] |  |  | 4 | 4 |

The remaining lines, values ahead:

| IC50 (H358) [nM] | IC50 (MIA PaCa-2) [nM] | IC50 (H358; Homo sapiens, NCI-H358, 120 h) [nM] | IC50 (MIA PaCa-2; [1]) [nM] | Structure (SMILES) |
| --- | --- | --- | --- | --- |
| 261 | 148 |  |  | C=CC(=O)N1CCN(c2nc(=O)n3c4nc(c(F)cc24)-c2c(F)cccc2OCC(OCC)C(O)c2ccnc(C(C)C)c2-3)[C@@H](C)C1 (stereo partly drawn) [Example 46, (S)-2^4-((S)-4-acryloyl-2-methylpiperazin-1-yl)-6-ethoxy-2^6,3^6-difluoro-7-hydroxy-1^2-isopropyl-2^1,2^2-dihydro-4-oxa-2(1,7)-pyrido[2,3-d]pyrimidina-1(3,4)-pyridina-3(1,2)-benzocycloheptane-2^2-one] |
|  |  | 9 | 5 | C=CC(=O)N1CCN(c2nc(=O)n3c4nc(c(F)cc24)-c2c(F)cccc2OCC(O)C(OCC2CC2)c2ccnc(C(C)C)c2-3)[C@@H](C)C1 (stereo partly drawn) [Example 47, (R)-2^4-((S)-4-acryloyl-2-methylpiperazin-1-yl)-7-(cyclopropylmethoxy)-2^6,3^6-difluoro-6-hydroxy-1^2-isopropyl-2^1,2^2-dihydro-4-oxa-2(1,7)-pyrido[2,3-d]pyrimidina-1(3,4)-pyridina-3(1,2)-benzocycloheptane-2^2-one] |
| 10 | 7 |  |  | C=CC(=O)N1CCN(c2nc(=O)n3c4nc(c(F)cc24)-c2c(F)cccc2OCC(O)C(OCC(F)F)c2ccnc(C(C)C)c2-3)[C@@H](C)C1 (stereo partly drawn) [Example 51, (R)-2^4-((S)-4-acryloyl-2-methylpiperazin-1-yl)-7-(2,2-difluoroethoxy)-2^6,3^6-difluoro-6-hydroxy-1^2-isopropyl-2^1,2^2-dihydro-4-oxa-2(1,7)-pyrido[2,3-d]pyrimidina-1(3,4)-pyridina-3(1,2)-benzocycloheptane-2^2-one] |
| 8 | 7 |  |  | C=CC(=O)N1CCN(c2nc(=O)n3c4nc(c(F)cc24)-c2c(F)cccc2OCC(OC(C)C)C(O)c2ccnc(C(C)C)c2-3)[C@@H](C)C1 (stereo partly drawn) [Example 55, (R)-2^4-((S)-4-acryloyl-2-methylpiperazin-1-yl)-6-isopropoxy-2^6,3^6-difluoro-7-hydroxy-1^2-isopropyl-2^1,2^2-dihydro-4-oxa-2(1,7)-pyrido[2,3-d]pyrimidina-1(3,4)-pyridina-3(1,2)-benzocycloheptane-2^2-one] |
| 221 | 218 |  |  | C=CC(=O)N1CCN(c2nc(=O)n3c4nc(c(F)cc24)-c2c(F)cccc2OCC(OC(C)C)C(O)c2ccnc(C(C)C)c2-3)[C@@H](C)C1 (stereo partly drawn) [Example 56, (S)-2^4-((S)-4-acryloyl-2-methylpiperazin-1-yl)-6-isopropoxy-2^6,3^6-difluoro-7-hydroxy-1^2-isopropyl-2^1,2^2-dihydro-4-oxa-2(1,7)-pyrido[2,3-d]pyrimidina-1(3,4)-pyridina-3(1,2)-benzocycloheptane-2^2-one] |
| 461 | 314 |  |  | C=CC(=O)N1C[C@H](C)N(c2nc(=O)n3c4nc(c(F)cc24)-c2c(F)cccc2OCC(O)C(OCC)c2ccnc(C(C)C)c2-3)C[C@H]1C (stereo partly drawn) [Example 58, (S)-2^4-((2S,5R)-4-acryloyl-2,5-dimethylpiperazin-1-yl)-7-ethoxy-2^6,3^6-difluoro-6-hydroxy-1^2-isopropyl-2^1,2^2-dihydro-4-oxa-2(1,7)-pyrido[2,3-d]pyrimidina-1(3,4)-pyridina-3(1,2)-benzocycloheptane-2^2-one] |
|  |  | 38 | 16 | C=CC(=O)N1CCN(c2nc(=O)n3c4nc(c(F)cc24)-c2c(F)cccc2OCC(OCCF)C(OCCF)c2ccnc(C(C)C)c2-3)[C@@H](C)C1 (stereo partly drawn) [Example 61, 2^4-((S)-4-acryloyl-2-methylpiperazin-1-yl)-2^6,3^6-difluoro-6,7-di(2-fluoroethoxy)-1^2-isopropyl-2^1,2^2-dihydro-4-oxa-2(1,7)-pyrido[2,3-d]pyrimidina-1(3,4)-pyridina-3(1,2)-benzocycloheptane-2^2-one] |
|  |  | 1 | 1 | C=CC(=O)N1C[C@H](C)N(c2nc(=O)n3c4nc(c(F)cc24)-c2c(ccc(Cl)c2F)OCC(O)C(O)c2ccnc(C(C)C)c2-3)C[C@H]1C (stereo partly drawn) [Example 65, (R)-2^4-((2S,5R)-4-acryloyl-2,5-dimethylpiperazin-1-yl)-3^5-chloro-2^6,3^6-difluoro-6,7-dihydroxy-1^2-isopropyl-2^1,2^2-dihydro-4-oxa-2(1,7)-pyrido[2,3-d]pyrimidina-1(3,4)-pyridina-3(1,2)-benz ocycloheptane-2^2-one] |
| 5 | 3 |  |  | C=CC(=O)N1CCN(c2nc(=O)n3c4nc(c(F)cc24)-c2c(ccc(Cl)c2F)OCC(O)C(O)c2ccnc(C(C)C)c2-3)[C@@H](C)C1 (stereo partly drawn) [Example 66, (R)-2^4-((S)-4-acryloyl-2-methylpiperazin-1-yl)-3^5-chloro-2^6,3^6-difluoro-6,7-dihydroxy-1^2-isopropyl-2^1,2^2-dihydro-4-oxa-2(1,7)-pyrido[2,3-d]pyrimidina-1(3,4)-pyridina-3(1,2)-benzocycloheptane-2^2-one] |
| 1320 | 859 |  |  | C=CC(=O)N1CCN(c2nc(=O)n3c4nc(c(F)cc24)-c2c(ccc(Cl)c2F)OCC(O)C(O)c2ccnc(C(C)C)c2-3)[C@@H](C)C1 (stereo partly drawn) [Example 67, (S)-2^4-((S)-4-acryloyl-2-methylpiperazin-1-yl)-3^5-chloro-2^6,3^6-difluoro-6,7-dihydroxy-1^2-isopropyl-2^1,2^2-dihydro-4-oxa-2(1,7)-pyrido[2,3-d]pyrimidina-1(3,4)-pyridina-3(1,2)-benzocycloheptane-2^2-one] |

— patent US20240101573A1, “MACROCYCLIC K-RAS G12C INHIBITOR, PREPARATION METHOD THEREFOR AND USE THEREOF” (Abbisko Therapeutics Co., Ltd., priority 2020, published 2024)
